The source of these data is US20140303164A1, “THERAPEUTIC COMPOUNDS” (Gilead Sciences, Inc., priority 2013, published 2014).

The test system of one data set is uninfected MT-4 cells. As to the kind of experiment: Test B: Cytotoxicity Assay. The format is cell-based. The settings on record: same protocol as Test A, 5 days. The essentials: (§1)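 Uninfected MT-4 cells (2000 per well) incubated with diluted compound at 37° C. for 5 days, following the antiviral protocol without HIV-IIIb.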
The next data set concerns HIV-IIIb. As to the kind of experiment: Test A: Antiviral Assay in MT4 Cells. The format is cell-based, HIV-1. The settings on record: for % inhibition at 0.2 μM: percent inhibition of virus-induced cell killing at 0.2 μM drug concentration; for % inhibition at 0.2 μM / % inhibition at 2 μM: from dose response curve, MT-4 cells, HIV-IIIb, 5 days, values above 100 normalized to 100; for % inhibition at 2 μM: percent inhibition of virus-induced cell killing at 2 μM drug concentration; for inhibition at 0.2 µM / inhibition at 2 µM: Human immunodeficiency virus 1, IIIB, MT4, 120 h; for inhibition at 0.2 µM: read-out: % inhibition at 0.2 μM; for inhibition at 2 µM: read-out: % inhibition at 2 μM. The procedure: Test A: Antiviral Assay in MT4 Cells
MT-4 cells were next mixed with HIV-IIIb at an m.o.i of 0.003 for 1 hour, after which time 35 μL of virus/cell mixture (2000 cells) was immediately added to each well containing 40 μL of diluted compound. The plates were then incubated at 37° C. for 5 days. […] Cell lysis was carried out by incubating at room temperature for 10 min and then chemiluminescence was read.

Data set [1] in a line: Test B: Cytotoxicity Assay. The format is cell-based. The settings on record: human, uninfected MT-4 cells, same protocol as Test A. The essentials: as §1

Structures are written as SMILES.

Turning to `Cn1nc(NS(C)(=O)=O)c2c(Cl)ccc(-c3ccc(-c4ccccn4)nc3[C@H](Cc3cc(F)cc(F)c3)NC(=O)Cn3nc(C(F)(F)F)c4c3C(F)(F)[C@@H]3C[C@H]43)c21` [Compound 172, N—((S)-1-(5-(4-chloro-1-methyl-3-(methylsulfonamido)-1H-indazol-7-yl)-[2,2′-bipyridin]-6-yl)-2-(3,5-difluorophenyl)ethyl)-2-((3b-S,4aR)-5,5-difluoro-3-(trifluoromethyl)-3b,4,4a,5-tetrahydro-1H-cyclopropa[3,4]cyclopenta[1,2-c]pyrazol-1-yl)acetamide], the CC50 in the data set with uninfected MT-4 cells stood at 0.061 µM.
As to `COc1cc(-c2ccc(Cl)c3c(NS(C)(=O)=O)nn(C)c23)c([C@H](Cc2cc(F)cc(F)c2)NC(=O)Cn2nc(C(F)(F)F)c3c2C(F)(F)[C@@H]2C[C@H]32)nc1C#CC(C)(C)O` [Compound 135B, N—((S)-1-(3-(4-chloro-1-methyl-3-(methylsulfonamido)-1H-indazol-7-yl)-6-(3-hydroxy-3-methylbut-1-yn-1-yl)-5-methoxypyridin-2-yl)-2-(3,5-difluorophenyl)ethyl)-2-((3b-S,4aR)-5,5-difluoro-3-(trifluoromethyl)-3b,4,4a,5-tetrahydro-1H-cyclopropa[3,4]cyclopenta[1,2-c]pyrazol-1-yl)acetamide], the CC50 in the data set on uninfected MT-4 cells was determined as 14.2 µM. For the same molecule, in the data set with HIV-IIIb, the “% inhibition at 0.2 μM” value is 93% and the “% inhibition at 2 μM” value amounted to 93%.
As to `CC(C)(O)C#Cc1ccc(-c2cccc3c(N)n[nH]c23)c([C@H](Cc2cc(F)cc(F)c2)NC(=O)Cn2nc(C(F)(F)F)c3c2C(F)(F)[C@@H]2C[C@H]32)n1` [Compound 29B, N—((S)-1-(3-(3-amino-1H-indazol-7-yl)-6-(3-hydroxy-3-methylbut-1-yn-1-yl)pyridin-2-yl)-2-(3,5-difluorophenyl)ethyl)-2-((3b-S,4aR)-5,5-difluoro-3-(trifluoromethyl)-3b,4,4a,5-tetrahydro-1H-cyclopropa[3,4]cyclopenta[1,2-c]pyrazol-1-yl)acetamide], the CC50 in the data set on uninfected MT-4 cells was 15.3 µM. Moreover, in the data set with HIV-IIIb, the “% inhibition at 0.2 μM” value was determined as 80% and the “% inhibition at 2 μM” value came out at 81%.
In data set [1], `Cn1nc(NS(C)(=O)=O)c2c(Cl)ccc(-c3ccc(C#CC(C)(C)O)nc3[C@H](Cc3cc(F)cc(F)c3)NC(=O)Cn3nc(C(F)F)c4c3C(F)(F)CCC4(F)F)c21` [Compound 82, (S)—N-(1-(3-(4 chloro-1-methyl-3-(methylsulfonamido)-1H-indazol-7-yl)-6-(3-hydroxy-3-methylbut-1-yn-1-yl)pyridin-2-yl)-2-(3,5-difluorophenyl)ethyl)-2-(3-(difluoromethyl)-4,4,7,7-tetrafluoro-4,5,6,7-tetrahydro-1H-indazol-1-yl)acetamide] registered a CC50 at 5 days of 9.7 µM. For the same molecule, in the data set on HIV-IIIb, the inhibition at 0.2 µM turned out to be 99% and the inhibition at 2 µM is 99%.
In data set [1], `Cn1nc(NS(C)(=O)=O)c2c(Cl)ccc(-c3ccc(C#CC(C)(C)O)nc3[C@H](Cc3cccc(F)c3)NC(=O)Cn3nc(C(F)F)c4c3C(F)(F)[C@@H]3C[C@H]43)c21` [Compound 188, N—((S)-1-(3-(4-chloro-1-methyl-3-(methylsulfonamido)-1H-indazol-7-yl)-6-(3-hydroxy-3-methylbut-1-yn-1-yl)pyridin-2-yl)-2-(3-fluorophenyl)ethyl)-2-((3b-S,4aR)-3-(difluoromethyl)-5,5-difluoro-3b,4,4a,5-tetrahydro-1H-cyclopropa[3,4]cyclopenta[1,2-c]pyrazol-1-yl)acetamide] had a CC50 at 5 days of 26.3 µM. Besides, in the data set with HIV-IIIb, the inhibition at 0.2 µM turned out to be 92% and the inhibition at 2 µM came out at 92%.
For the molecule `Cn1nc(NS(C)(=O)=O)c2c(Cl)ccc(-c3ccc(C#CC(C)(C)O)nc3[C@H](Cc3cc(F)cc(F)c3)NC(=O)Cc3c[nH]c4ccc(F)cc34)c21` [Compound 193, (S)—N-(1-(3-(4 chloro-1-methyl-3-(methylsulfonamido)-1H-indazol-7-yl)-6-(3-hydroxy-3-methylbut-1-yn-1-yl)pyridin-2-yl)-2-(3,5-difluorophenyl)ethyl)-2-(5-fluoro-1H-indol-3-yl)acetamide], in data set [1], the midpoint of cytotoxicity, the CC50 at 5 days, lay at 23.1 µM. In addition, in the data set with HIV-IIIb, the inhibition at 0.2 µM came to 92% and the inhibition at 2 µM turned out to be 92%.
As for `CC(C)(O)C#Cc1ccc(-c2cccc3c(N)nccc23)c([C@H](Cc2cc(F)cc(F)c2)NC(=O)Cn2nc(C(F)(F)F)c3c2C(F)(F)[C@@H]2C[C@H]32)n1` [Compound 73, N—((S)-1-(3-(1-aminoisoquinolin-5-yl)-6-(3-hydroxy-3-methylbut-1-yn-1-yl)pyridin-2-yl)-2-(3,5-difluorophenyl)ethyl)-2-((3b-S,4aR)-5,5-difluoro-3-(trifluoromethyl)-3b,4,4a,5-tetrahydro-1H-cyclopropa[3,4]cyclopenta[1,2-c]pyrazol-1-yl)acetamide], in data set [1], the CC50 at 5 days is 4.49 µM. Further, in the data set on HIV-IIIb, the inhibition at 0.2 µM was found to be 86% and the inhibition at 2 µM was determined as 86%.
`COc1ccc2[nH]cc(CC(=O)N[C@@H](Cc3cc(F)cc(F)c3)c3nc(C#CC(C)(C)O)ccc3-c3ccc(Cl)c4c(NS(C)(=O)=O)nn(C)c34)c2n1` [Compound 194, (S)—N-(1-(3-(4 chloro-1-methyl-3-(methylsulfonamido)-1H-indazol-7-yl)-6-(3-hydroxy-3-methylbut-1-yn-1-yl)pyridin-2-yl)-2-(3,5-difluorophenyl)ethyl)-2-(5-methoxy-1H-pyrrolo[3,2-b]pyridin-3-yl)acetamide]: in data set [1], it took 21.3 µM to reach half-maximal cytotoxicity (CC50 at 5 days). In the data set with HIV-IIIb, the inhibition at 0.2 µM came to 84% and the inhibition at 2 µM is 99%.
In data set [1], `CN(C)CC#Cc1ccc(-c2cccc3c(NS(C)(=O)=O)nn(C)c23)c([C@H](Cc2cc(F)cc(F)c2)NC(=O)Cn2nc(C(F)(F)F)c3c2C(F)(F)[C@@H]2C[C@H]32)n1` [Compound 61B, 2-((3bS,4aR)-5,5-difluoro-3-(trifluoromethyl)-3b,4,4a,5-tetrahydro-1H-cyclopropa[3,4]cyclopenta[1,2-c]pyrazol-1-yl)-N—((S)-2-(3,5-difluorophenyl)-1-(6-(3-(dimethylamino)prop-1-yn-1-yl)-3-(1-methyl-3-(methylsulfonamido)-1H-indazol-7-yl)pyridin-2-yl)ethyl)acetamide] came in with a CC50 at 5 days of 14.3 µM. In the data set with HIV-IIIb, the inhibition at 0.2 µM is 96% and the inhibition at 2 µM came out at 96%.
For the molecule `CC(C)C(C)(O)C#Cc1ccc(-c2cccc3c(NS(C)(=O)=O)nn(C)c23)c([C@H](Cc2cc(F)cc(F)c2)NC(=O)Cn2nc(C(F)(F)F)c3c2C(F)(F)[C@@H]2C[C@H]32)n1` (stereo partly drawn) [Compound 62, 2-((3bS,4aR)-5,5-difluoro-3-(trifluoromethyl)-3b,4,4a,5-tetrahydro-1H-cyclopropa[3,4]cyclopenta[1,2-c]pyrazol-1-yl)-N-((1S)-2-(3,5-difluorophenyl)-1-(6-(3-hydroxy-3,4-dimethylpent-1-yn-1-yl)-3-(1-methyl-3-(methylsulfonamido)-1H-indazol-7-yl)pyridin-2-yl)ethyl)acetamide], the CC50 at 5 days in data set [1] is 5.7 µM. Moreover, in the data set on HIV-IIIb, the inhibition at 0.2 µM was 100% and the inhibition at 2 µM was 100%.
As to `Cn1nc(NC(=O)C(C)(C)O)c2c(Cl)ccc(-c3ccc(C#CC(C)(C)O)nc3[C@H](Cc3cc(F)cc(F)c3)NC(=O)Cn3nc(C(F)F)c4c3C(F)(F)[C@@H]3C[C@H]43)c21` [Compound 89, N-(4-chloro-7-(2-((S)-1-(2-((3b-S,4aR)-3-(difluoromethyl)-5,5-difluoro-3b,4,4a,5-tetrahydro-1H-cyclopropa[3,4]cyclopenta[1,2-c]pyrazol-1-yl)acetamido)-2-(3,5-difluorophenyl)ethyl)-6-(3-hydroxy-3-methylbut-1-yn-1-yl)pyridin-3-yl)-1-methyl-1H-indazol-3-yl)-2-hydroxy-2-methylpropanamide], half-maximal cytotoxicity in data set [1] (CC50 at 5 days) was put at 7.77 µM. Besides, in the data set on HIV-IIIb, the inhibition at 0.2 µM was 95% and the inhibition at 2 µM amounted to 95%.
The molecule `CC(C)(O)C#Cc1ccc(-c2ccc(Cl)c(C(N)=O)c2)c([C@H](Cc2cc(F)cc(F)c2)NC(=O)Cn2nc(C(F)(F)F)c3c2C(F)(F)[C@@H]2C[C@H]32)n1` [Compound 80, 2-chloro-5-(2-((S)-1-(2-((3bS,4aR)-5,5-difluoro-3-(trifluoromethyl)-3b,4,4a,5-tetrahydro-1H-cyclopropa[3,4]cyclopenta[1,2-c]pyrazol-1-yl)acetamido)-2-(3,5-difluorophenyl)ethyl)-6-(3-hydroxy-3-methylbut-1-yn-1-yl)pyridin-3-yl)benzamide] showed a CC50 at 5 days in data set [1] of 8.58 µM. In the data set on HIV-IIIb, the inhibition at 0.2 µM amounted to 96% and the inhibition at 2 µM came out at 100%.
Turning to `CC(C)C(=O)Nc1nn(C)c2c(-c3ccc(C#CC(C)(C)O)nc3[C@H](Cc3cc(F)cc(F)c3)NC(=O)Cn3nc(C(F)F)c4c3C(F)(F)[C@@H]3C[C@H]43)ccc(Cl)c12` [Compound 96, N-(4-chloro-7-(2-((S)-1-(2-((3b-S,4aR)-3-(difluoromethyl)-5,5-difluoro-3b,4,4a,5-tetrahydro-1H-cyclopropa[3,4]cyclopenta[1,2-c]pyrazol-1-yl)acetamido)-2-(3,5-difluorophenyl)ethyl)-6-(3-hydroxy-3-methylbut-1-yn-1-yl)pyridin-3-yl)-1-methyl-1H-indazol-3-yl)isobutyramide], the CC50 at 5 days in data set [1] worked out at 7 µM. In addition, in the data set on HIV-IIIb, the inhibition at 0.2 µM is 100% and the inhibition at 2 µM was 100%.
